Test results published in patent publication US6664285B1, “Use of cell membrane penetrating indigoid bisindole derivatives” (priority 1999, dated 2003).

Tests used:
[1] = test system: CXF280 (colon); test: Colony-forming assay; type: cell-based, human; details: for IC50: read-out: IC50 colony formation
[2] = test system: human tumor xenograft LXFL 529; test: In vivo testing in nude mice bearing subcutaneous tumor xenograft; details: for tumor growth (relative tumor volume) compared to the vehicle control (in words): LXFL 529/17, i.p., nude mice, FIG. 1
Experimental: Compound of Examples 1, 4, 6, 8, 9 and 10 were subjected to in vivo testing in nude mice bearing subcutaneously growing human tumor xenograft LXFL 529. The indigoid bisindole derivatives were applied intraperitoneally to the animals in doses and according to the schedule as described in Table 4.
The experiments were run for 21 or 28 days. Anti-tumor activity was evaluated comparing the median tumor volume relative to control, expressed as %T/C, wherein T is the test group and C the vehicle control group. In Table 4, anti-tumor activity is given according to an activity rate scale.

[3] = test system: BXF1301 (bladder); test: Colony-forming assay; type: cell-based, human
[4] = test system: MEXF515LX (melanoma); test: Colony-forming assay; type: cell-based, human; details: for IC50: read-out: IC50 colony formation
[5] = test system: LXFA289 (lung adenocarcinoma); test: Colony-forming assay; type: cell-based, human; details: for IC50: read-out: IC50 colony formation
[6] = test system: large-cell lung carcinoma xenograft line LXFL 529 L; test: Tumor cell growth inhibition, sulforhodamine B (SRB) assay; type: cell-based, human; details: LXFL529L; three days incubation, serum containing medium
[7] = test system: LXFL 529L cells; test: Cellular uptake into LXFL 529L cells; details: for ability to penetrate the cellular membrane / uptake compared to indirubin (Example 1) (in words) / uptake by the tumor cells (in words): LXFL 529L cells; for distribution cellular organelles / distribution cytosol / amount of substance within the cells: 2 hours incubation
Experimental: The compounds of Examples 1, 6 and 8 and Comparative Examples 1 and 2 were investigated with respect to their ability to penetrate LXFL 529L cells having the passage numbers P23 to P39. The amounts of the substances taken up by the cells are given depending on the concentration of the substance within the incubation medium. The time of incubation was 2 hours in all of the experiments. Furthermore, the distribution of the substance which was taken up by the cells in the cytosol and the cellular organelles (particular) was estimated and is given in the intermediate column of Table 2. Tumor cell growth inhibition was determined by the sulfo-rhodamine B assay (SRB assay) according to Skehan et al., J. Natl. Cancer Institute 82, pages 1107-1112 (1990). Incubation was conducted for three days in serum containing medium. Tumor cell lines tested were a large-cell lung carcinoma xenograft line LXFL 529 L and the mammary carcinoma line MCF-7.

[8] = test system: mammary carcinoma line MCF-7; test: Tumor cell growth inhibition, sulforhodamine B (SRB) assay; type: cell-based, human; details: MCF7; three days incubation, serum containing medium
[9] = test system: MEXF989 (melanoma); test: Colony-forming assay; type: cell-based, human
[10] = test system: MX1 (mammary); test: Colony-forming assay; type: cell-based, human
[11] = test system: HT29X (colon); test: Colony-forming assay; type: cell-based, human; details: colon HT29X; for IC50: read-out: IC50 colony formation
[12] = test system: MCF7X (mammary); test: Colony-forming assay; type: cell-based, human; details: for IC50: read-out: IC50 colony formation
[13] = dosage of 100 mg/kg up to 300 mg/kg, FIG. 2 and FIG. 4
Source text: A reduction of the body weight of the tested mice of more then 20% by weight in general is interpreted as a toxic dose.

[14] = test system: PAXF736 (pancreatic); test: Colony-forming assay; type: cell-based, human; details: for IC50: read-out: IC50 colony formation
[15] = test system: OVXF1352 (ovarian)
Experimental: (§1) The anti-tumor activity of the compounds was evaluated via a colony-forming-assay as described e.g. by D. P. Berger et al. in Annals of Oncology 1, pages 333-341 (1 990), “The clonongenic assay with human tumor xenografts, evaluation, predictive values and application for drug screening”.
(§2) The experiments were conducted using various tumor cell lines, in particular mammary carcinoma (MAXF), lung adenocarcinoma (LXFA), large-cell lung carcinoma (LXFL), small-cell lung carcinoma (LXFS), colon carcinoma (CXF), melanoma (MEXF), pancreatic carcinoma (PAXF), renal carcinoma (RXF), ovarian carcinoma (OVXF) and bladder carcinoma (BXF).

[16] = test system: MEXF514 (melanoma); test: Colony-forming assay; type: cell-based, human; details: for IC50: read-out: IC50 colony formation
[17] = test system: LXFL529 (lung large-cell); test: Colony-forming assay; type: cell-based, human
[18] = test system: OVXF899 (ovarian)
Experimental: as §1, §2

[19] = test system: 1220 (renal); test: Colony-forming assay; type: cell-based, human; details: renal 1220
[20] = test system: PAXF546 (pancreatic); test: Colony-forming assay; type: cell-based, human
[21] = 300 mg/kg/day i.p., days 1, 4, 8, 11, 15, 18, 22
[22] = read-out: IC50 colony formation
[23] = concentration of incubation 10 μM
[24] = concentration of incubation 20 μM

IC50 [1] [µM]	IC50 [4] [µM]	IC50 [5] [µM]	IC50 [12] [µM]	SMILES	IC70 colony formation [1] [µM]	activity rating [2, 21]	IC70 colony formation [4] [µM]	IC70 colony formation [5] [µM]	IC50 [6] [µM]	ability to penetrate the cellular membrane / uptake compared to indirubin (Example 1) (in words) [7]	uptake by the tumor cells (in words) [7]	distribution cellular organelles [7, 23] [%]	distribution cytosol [7, 23] [%]	distribution cellular organelles [7, 24] [%]	distribution cytosol [7, 24] [%]	IC50 [8] [µM]	IC70 colony formation [11] [µM]	IC50 [11] [µM]	tumor growth (relative tumor volume) compared to the vehicle control (in words) [2]	IC70 colony formation [12] [µM]	further results
8	2.8	0.9		O=C1Nc2ccccc2/C1=C1/Nc2ccccc2/C1=N\O [Example 8, Indirubin-3′-oxime]	12.6	− (inactive T/C > 50%)	5.7	3.4	3 ± 0.5	slightly improved	taken up by the tumor cells	57 ± 14.1	43 ± 14.1	56 ± 15.6	44 ± 15.6	3.3 ± 0.4					activity rating ([2]; 100 mg/kg/day i.p., days 1, 4, 8, 11, 15, 18, 22): − (inactive T/C > 50%); IC70 colony formation [3]: 16.1 µM; IC50 [3, 22]: 10.6 µM; IC70 colony formation [9]: 2.6 µM; IC50 [9, 22]: 1 µM; IC70 colony formation [10]: 9.2 µM; IC50 [10, 22]: 7.7 µM
12	< 0.1	1.1	0.6	O=C1Nc2ccc(S(=O)(=O)NCCO)cc2C1=C1Nc2ccccc2C1=O [Example 13, Indirubin-5-sulfone(2-hydroxyethyl)amide]	17.3		0.4	2.6												2.1	IC70 colony formation [17]: 5.9 µM; IC50 [17, 22]: 3.4 µM; IC70 colony formation [18]: 0.4 µM; IC50 [18, 22]: 0.3 µM
			< 1	O=C1Nc2ccc(Cl)cc2/C1=C1/Nc2ccccc2C1=O [Example 4, 5-Chloroindirubin]													17.3	< 1	significantly inhibited the tumor growth	<1.0	activity rating ([2]; 100 mg/kg/day i.p., days 1-5): ++ (tumor stasis T/C ≦ 25%); activity rating ([2]; 300 mg/kg/day i.p., days 1-5): ++ (tumor stasis T/C ≦ 25%); IC70 colony formation [19]: 24.7 µM; IC50 [19, 22]: 11.2 µM; IC70 colony formation [14]: 8.0 µM; IC50 [14]: 3.2 µM; IC70 colony formation [16]: 26.0 µM; IC50 [16]: 17.1 µM; IC70 colony formation [20]: >30 µM; IC50 [20, 22]: 4.6 µM

SMILES	IC50 [1] [µM]	IC50 [4] [µM]	IC50 [5] [µM]	IC50 [12] [µM]	IC70 colony formation [1] [µM]	activity rating [2, 21]	IC70 colony formation [4] [µM]	IC70 colony formation [5] [µM]	IC50 [6] [µM]	ability to penetrate the cellular membrane / uptake compared to indirubin (Example 1) (in words) [7]	uptake by the tumor cells (in words) [7]	distribution cellular organelles [7, 23] [%]	distribution cytosol [7, 23] [%]	distribution cellular organelles [7, 24] [%]	distribution cytosol [7, 24] [%]	IC50 [8] [µM]	IC70 colony formation [11] [µM]	IC50 [11] [µM]	tumor growth (relative tumor volume) compared to the vehicle control (in words) [2]	IC70 colony formation [12] [µM]	further results
Cc1ccc2c(c1)/C(=C1/Nc3ccccc3C1=O)C(=O)N2 [Example 6, 5-Methylindirubin]				< 1		++ (tumor stasis T/C ≦ 25%)			7.5 ± 0.5	substantially improved	taken up by the tumor cells	87 ± 0.7	13 ± 0.7	94 ± 2.8	6 ± 2.8	4.8 ± 0.5	14.4	< 1	significantly inhibited the tumor growth	1.2	activity rating ([2]; 100 mg/kg/day i.p., days 1-5, 8-12, 15, 17, 19, 22): ++ (tumor stasis T/C ≦ 25%); anti-tumor activity (in words) ([2]; dosage of 100 mg/kg up to 300 mg/kg, FIG. 1 and FIG. 3): very high anti-tumor activity; amount of substance within the cells [7, 23]: 0.52 ± 0.1; amount of substance within the cells [7, 24]: 0.86 ± 0.22; reduction of body weight (in words) [13]: without any significant reduction of body weight; IC70 colony formation [14]: 27.5 µM; IC50 [14]: 15.4 µM; IC70 colony formation [15]: >30 µM; IC50 [15, 22]: 1 µM; IC70 colony formation [16]: 27.8 µM; IC50 [16]: 19.2 µM
